Results published in ChEMBL document CHEMBL1149348, “Tubulin polymerization inhibitors with a fluorinated phthalimide skeleton derived from thalidomide” (Bioorg Med Chem Lett, 2006).
The source made the active and inactive calls. No cut-off for these calls is given here.

Experiments:
Tubulin = Tubulin (Sus scrofa, UniProt P02554+P02550); assay: Inhibition of tubulin polymerization in porcine brain
Tubulin (Sus scrofa) [1] = molecular target: T1, Tubulin (Sus scrofa) (UniProt P02554+P02550); assay: Inhibition of tubulin polymerization in porcine brain at 20 uM
T1 sequence (P02550 whole entry, looked up): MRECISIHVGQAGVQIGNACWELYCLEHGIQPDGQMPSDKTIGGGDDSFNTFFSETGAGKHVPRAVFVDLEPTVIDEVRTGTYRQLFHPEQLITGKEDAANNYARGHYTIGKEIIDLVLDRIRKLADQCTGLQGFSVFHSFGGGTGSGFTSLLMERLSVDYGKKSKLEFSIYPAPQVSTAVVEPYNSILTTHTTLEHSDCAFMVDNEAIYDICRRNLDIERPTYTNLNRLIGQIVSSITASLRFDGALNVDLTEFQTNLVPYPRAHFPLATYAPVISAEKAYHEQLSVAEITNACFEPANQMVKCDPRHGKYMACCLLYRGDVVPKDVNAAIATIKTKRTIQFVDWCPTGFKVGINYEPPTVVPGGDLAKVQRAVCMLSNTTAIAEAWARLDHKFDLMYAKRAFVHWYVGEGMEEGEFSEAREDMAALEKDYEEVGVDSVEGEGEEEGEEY
T1 sequence (P02554 whole entry, looked up): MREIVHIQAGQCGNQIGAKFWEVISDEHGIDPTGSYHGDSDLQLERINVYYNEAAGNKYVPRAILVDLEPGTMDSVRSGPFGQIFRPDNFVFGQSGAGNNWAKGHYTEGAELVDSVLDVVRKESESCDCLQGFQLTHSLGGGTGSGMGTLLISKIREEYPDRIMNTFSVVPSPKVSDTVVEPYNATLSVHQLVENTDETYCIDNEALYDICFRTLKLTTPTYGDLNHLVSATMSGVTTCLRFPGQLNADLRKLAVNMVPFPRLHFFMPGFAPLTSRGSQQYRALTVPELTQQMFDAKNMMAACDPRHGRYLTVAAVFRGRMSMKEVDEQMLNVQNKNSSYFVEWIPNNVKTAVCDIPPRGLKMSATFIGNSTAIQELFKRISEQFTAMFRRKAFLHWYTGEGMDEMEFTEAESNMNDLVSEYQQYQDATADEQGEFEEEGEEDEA

Tubulin (Sus scrofa) [2] = molecular target: T1, Tubulin (Sus scrofa); assay: Inhibition of tubulin depolymerization in porcine brain at 10 uM

SMILES | IC50 (Tubulin) [µM] | inhibition (Tubulin (Sus scrofa) [1]) [%] | Activity (Tubulin (Sus scrofa) [2])
CC(C)c1cccc(C(C)C)c1N1C(=O)c2ccc(O)cc2C1=O | 6.9 |  | 
CC(C)c1cccc(C(C)C)c1N1C(=O)c2cccc(F)c2C1=O | 17 | 73 | 
CCCc1cccc(CCC)c1N1C(=O)c2c(Cl)c(Cl)c(Cl)c(Cl)c2C1=O |  | 0 | 
CCc1cccc(CC)c1N1C(=O)c2c(F)c(F)c(F)c(F)c2C1=O |  | 18 | 
CC(C)c1cccc(C(C)C)c1N1C(=O)c2cc(F)c(F)cc2C1=O |  | 8 | 
Cc1cccc(C)c1N1C(=O)c2c(F)c(F)c(F)c(F)c2C1=O |  | 10 | 
CO[C@@H](/C(C)=C/C=C/C(C)=C/c1coc(C)n1)[C@@H](C)[C@@H]1C[C@H](O)[C@@]2(C)O[C@@H]2/C=C/[C@@H](C)[C@H]2C[C@H](CC(=O)O2)C[C@@H]2O[C@H]2C(=O)O1 |  | 81 | 
CC(C)c1cccc(C(C)C)c1N1C(=O)c2c(F)ccc(F)c2C1=O | 7.8 | 78 | inactive

Next, values leading:

IC50 (Tubulin) [µM] | inhibition (Tubulin (Sus scrofa) [1]) [%] | Activity (Tubulin (Sus scrofa) [2]) | SMILES
 | 9 |  | CC(C)c1cccc(C(C)C)c1N1C(=O)c2ccc(F)cc2C1=O
 | 7 |  | O=C1c2c(F)c(F)c(F)c(F)c2C(=O)N1c1ccccc1
 | 10 |  | CC(C)c1ccccc1N1C(=O)c2c(F)c(F)c(F)c(F)c2C1=O
 | 11 |  | CC(C)c1cc(Br)cc(C(C)C)c1N1C(=O)c2c(F)c(F)c(F)c(F)c2C1=O
 | 0 |  | Cc1cccc(C)c1N1C(=O)c2c(Cl)c(Cl)c(Cl)c(Cl)c2C1=O
 | 10 |  | CC(C)c1ccc([N+](=O)[O-])c(C(C)C)c1N1C(=O)c2c(F)c(F)c(F)c(F)c2C1=O
 | 6 |  | O=C1c2c(Cl)c(Cl)c(Cl)c(Cl)c2C(=O)N1c1ccccc1
16 | 71 |  | CC(C)c1cccc(C(C)C)c1N1C(=O)c2c(F)c(F)c(F)c(F)c2C1=O
 | 3 |  | CC(C)c1cccc(C(C)C)c1N1C(=O)c2ccccc2C1=O
